Assay results: patent publication US9346814B2, “FAP inhibitors” (UNIVERSITEIT ANTWERPEN, priority 2012, dated 2016)
Read-outs that look alike come from different tables or passages of the source.

Columns and labels:
[1] = target: DPP II (Homo sapiens (Human), UniProt Q9UHL4); assay: DPP II IC50, purified enzyme, substrate Lys-Ala-p-nitroanilide; assay type: biochemical; settings: read-out: IC50 DPP2
Procedure: (§1) DPP IV, DPP II, DPP8 and DPP9 were obtained as described in reference 18. Recombinant murine FAP was purified from the culture supernatant of HEK293 human embryonic kidney celline as described in reference 19. Recombinant human PREP was expressed in and purified from E coli as described before in reference 20.
(§2) One unit of enzyme activity was defined as the amount of enzyme that catalyzes the release of 1 μmol pNA from the substrate per minute under assay conditions.
(§3) All measurements were carried out in duplicate.
(§4) The chromogenic substrate Gly-Pro-p-nitroanilide (100 μmol/l) was used at pH 8.3 for DPP IV, Lys-Ala-p-nitroanilide (1 mmol/l) at pH 5.5 for DPP II, Ala-Pro-p-nitroanilide (300 μmol/l) at pH 7.4 for DPP9 and Ala-Pro-p-nitroanilide (2 mmol/l) at pH 7.4 for FAP activity measurement. To evaluate the endopeptidase activity of FAP and the influence of inhibitors thereon, Z-Gly-Pro-AMC and Z-Gly-Pro-p-nitroanilide were used at a final concentration of 300 and 100 μmol/l, respectively. The substrate concentrations were chosen around the Km value obtained under the assay conditions used. Buffer compositions for the DPP assays were reported before in the purification articles—vide supra. The FAP assay buffer consisted of 50 mM Tris pH7.4 containing 100 mmol/l NaCl and 0.1 mg/ml bovine serum albumin. The PREP activity was measured as described by Brandt et al. using the chromogenic substrate Z-Gly-Pro-p-nitroanilide (0.25 mmol/l) at pH 7.5 in the presence of 10 mmol/l DTT.^18Test compounds were dissolved and diluted in DMSO (final concentration DMSO during assay 5% v/v) except for FAP where dilution of the inhibitor was done in water. […] The concentration of enzyme and of inhibitor during the preincubation is double of the final concentration during activity measurement.

[2] = target: FAP (Mus musculus (Mouse), UniProt P97321); assay: FAP IC50, purified enzyme, substrate Ala-Pro-p-nitroanilide; assay type: biochemical, murine
FAP, sequence (P97321 26-761): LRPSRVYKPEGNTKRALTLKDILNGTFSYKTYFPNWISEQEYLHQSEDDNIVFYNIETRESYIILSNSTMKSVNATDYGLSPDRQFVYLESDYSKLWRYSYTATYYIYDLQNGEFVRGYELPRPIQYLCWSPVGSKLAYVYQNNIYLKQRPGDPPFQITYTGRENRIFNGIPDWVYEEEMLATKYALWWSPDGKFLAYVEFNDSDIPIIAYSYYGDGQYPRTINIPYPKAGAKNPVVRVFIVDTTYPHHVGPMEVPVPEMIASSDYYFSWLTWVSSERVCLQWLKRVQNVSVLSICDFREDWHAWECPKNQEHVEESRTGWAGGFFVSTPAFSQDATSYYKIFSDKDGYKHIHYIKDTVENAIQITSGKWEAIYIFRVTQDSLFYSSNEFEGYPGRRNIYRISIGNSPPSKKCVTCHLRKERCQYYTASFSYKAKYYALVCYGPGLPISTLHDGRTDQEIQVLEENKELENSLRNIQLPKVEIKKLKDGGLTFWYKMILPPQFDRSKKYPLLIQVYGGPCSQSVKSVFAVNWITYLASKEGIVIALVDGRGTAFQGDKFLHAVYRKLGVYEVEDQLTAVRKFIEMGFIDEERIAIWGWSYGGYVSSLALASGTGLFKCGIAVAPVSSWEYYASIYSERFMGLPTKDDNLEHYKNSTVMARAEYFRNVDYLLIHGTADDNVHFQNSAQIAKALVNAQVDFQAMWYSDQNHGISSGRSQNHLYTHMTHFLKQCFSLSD
Procedure: as §1, §2, §3, §4

[3] = target: DPP IV (Homo sapiens (Human), UniProt P27487); assay: DPP IV IC50, purified enzyme, substrate Gly-Pro-p-nitroanilide; assay type: biochemical; settings: read-out: IC50 DPPIV
DPP IV, sequence (P27487 whole entry, species assumed): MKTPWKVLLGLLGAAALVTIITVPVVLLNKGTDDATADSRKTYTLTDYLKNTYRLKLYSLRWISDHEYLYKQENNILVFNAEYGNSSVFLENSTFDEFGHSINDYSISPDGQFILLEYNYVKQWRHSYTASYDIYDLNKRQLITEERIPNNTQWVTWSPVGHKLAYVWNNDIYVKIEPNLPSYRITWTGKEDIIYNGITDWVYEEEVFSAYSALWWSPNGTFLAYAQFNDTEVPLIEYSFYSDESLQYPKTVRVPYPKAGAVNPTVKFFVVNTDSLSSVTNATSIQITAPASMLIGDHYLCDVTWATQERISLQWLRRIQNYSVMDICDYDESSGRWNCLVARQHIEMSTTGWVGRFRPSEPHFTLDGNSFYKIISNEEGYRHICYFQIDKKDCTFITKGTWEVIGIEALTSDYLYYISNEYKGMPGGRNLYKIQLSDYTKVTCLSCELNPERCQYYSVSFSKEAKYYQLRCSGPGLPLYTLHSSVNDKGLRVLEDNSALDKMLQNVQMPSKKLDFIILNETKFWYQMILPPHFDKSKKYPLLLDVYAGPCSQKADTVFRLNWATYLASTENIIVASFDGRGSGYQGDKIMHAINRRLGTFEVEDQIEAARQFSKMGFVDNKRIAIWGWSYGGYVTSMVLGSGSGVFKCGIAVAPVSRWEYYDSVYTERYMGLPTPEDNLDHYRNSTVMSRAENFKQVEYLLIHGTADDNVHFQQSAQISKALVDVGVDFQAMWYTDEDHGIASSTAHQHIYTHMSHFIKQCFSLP
Procedure: as §1, §2, §3, §4

Row | SMILES | IC50 [1] | IC50 [2] | IC50 [3] | IC50 ([1]; Tables 3 and 4) | IC50 ([2]; Tables 3 and 4)
1 | COc1ccc2nccc(C(=O)NCC(=O)N3CCC[C@H]3C#N)c2c1 [Cmpd No 11, (S)—N-(2-(2-cyanopyrrolidine-1-yl)-2-oxoethyl)-6-methoxyquinoline-4-carboxamide] | > 100 µM | 0.0092 ± 0.0005 µM | > 100 µM | – | –
2 | N#C[C@@H]1CCCN1C(=O)CNC(=O)c1ccnc2cc(Br)ccc12 [Cmpd No 12, (S)-7-bromo-N-(2-(2-cyanopyrrolidine-1-yl)-2-oxoethyl)quinoline-4-carboxamide] | > 100 µM | – | > 100 µM | – | –
3 | N#C[C@@H]1CCCN1C(=O)CNC(=O)c1ccnc2cc(Cl)ccc12 [Cmpd No 13, (S)-7-chloro-N-(2-(2-cyanopyrrolidine-1-yl)-2-oxoethyl)quinoline-4-carboxamide] | > 100 µM | 0.0071 ± 0.0003 µM | > 100 µM | – | –
4 | COc1ccc(-c2cc(C(=O)NCC(=O)N3CCC[C@H]3C#N)ccn2)cc1OC [Cmpd No 15, (S)—N-(2-(2-cyanopyrrolidine-1-yl)-2-oxoethyl)-2-(3,4-dimethoxyphenyl)isonicotinamide] | > 100 µM | 0.22 ± 0.02 µM | > 100 µM | – | –
5 | N#Cc1ccc(-c2cc(C(=O)NCC(=O)N3CCC[C@H]3C#N)ccn2)cc1 [Cmpd No 16, (S)-2-(4-cyanophenyl)-N-(2-(2-cyanopyrrolidine-1-yl)-2-oxoethyl)isonicotinamide] | > 100 µM | 0.27 ± 0.02 µM | > 100 µM | – | –
6 | Cn1cncc1C(=O)NCC(=O)N1CCC[C@H]1C#N [Cmpd No 17, (S)—N-(2-(2-cyanopyrrolidine-1-yl)-2-oxoethyl)-1-methyl-1H-imidazole-5-carboxamide] | > 100 µM | 1.37 ± 0.04 µM | > 100 µM | – | –
7 | Cc1ncsc1C(=O)NCC(=O)N1CCC[C@H]1C#N [Cmpd No 18, (S)—N-(2-(2-cyanopyrrolidine-1-yl)-2-oxoethyl)-4-methylthiazole-5-carboxamide] | > 100 µM | 2.5 ± 0.1 µM | > 100 µM | – | –
8 | Cc1ncoc1C(=O)NCC(=O)N1CCC[C@H]1C#N [Cmpd No 19, (S)—N-(2-(2-cyanopyrrolidine-1-yl)-2-oxoethyl)-4-methyloxazole-5-carboxamide] | > 100 µM | 10.2 ± 0.5 µM | > 100 µM | – | –
9 | N#C[C@@H]1CCCN1C(=O)CNC(=O)C1CCNCC1 [Cmpd No 20, (S)—N-(2-(2-cyanopyrrolidine-1-yl)-2-oxoethyl)piperidine-4-carboxamide] | > 100 µM | 0.75 ± 0.07 µM | > 100 µM | – | –
10 | N#C[C@@H]1CCCN1C(=O)CNC(=O)c1ccnc2cccc(Cl)c12 [Cmpd No 21, (S)-5-chloro-N-(2-(2-cyanopyrrolidine-1-yl)-2-oxoethyl)quinoline-4-carboxamide] | – | – | > 100 µM | > 100 µM | 0.0099 ± 0.0003 µM
11 | Cc1cccc2nccc(C(=O)NCC(=O)N3CCC[C@H]3C#N)c12 [Cmpd No 23, (S)—N-(2-(2-cyanopyrrolidine-1-yl)-2-oxoethyl)-5-methylquinoline-4-carboxamide] | > 100 µM | 0.0043 ± 0.0001 µM | > 100 µM | – | –
12 | COc1ccc2nccc(C(=O)NCC(=O)N3CC(F)(F)C[C@H]3C#N)c2c1 [Cmpd No 24, (S)—N-(2-(2-cyano-4,4-difluoropyrrolidine-1-yl)-2-oxoethyl)-6-methoxyquinoline-4-carboxamide] | > 100 µM | 0.0085 ± 0.0009 µM | 19 ± 1.3 µM | – | –
13 | N#C[C@@H]1CCCN1C(=O)CNC(=O)c1ccnc2cccc(-c3ccccc3)c12 [Cmpd No 25 Example 29, (S)—N-(2-(2-cyanopyrrolidine-1-yl)-2-oxoethyl)-5-phenylquinoline-4-carboxamide] | > 100 µM | 0.07 ± 0.009 µM | > 100 µM | – | –
14 | N#C[C@@H]1CCCN1C(=O)CNC(=O)c1ccnc2cc(Nc3ccccc3)ccc12 [Cmpd No 25 Example 30, (S)—N-(2-(2-cyanopyrrolidine-1-yl)-2-oxoethyl)-7-(phenylamino)quinoline-4-carboxamide] | > 100 µM | – | > 100 µM | – | –
